# Test results from ChEMBL document CHEMBL1134617 (J Med Chem, 2001).
# Columns and labels:
# [1] = target: Serotonin receptor 2a and 2c (5HT2A and 5HT2C) (Rattus norvegicus) (UniProt P08909+P14842); experiment: Ratio of binding affinity towards rat 5-HT2C and 5-HT2A receptors; format: protein assay
# [2] = target: T1, 5-hydroxytryptamine receptor 2C (Rattus norvegicus, UniProt P08909); experiment: Binding affinity against rat 5-hydroxytryptamine 2C receptor using [3H]mesulergine as radioligand
# T1 sequence (P08909 whole entry): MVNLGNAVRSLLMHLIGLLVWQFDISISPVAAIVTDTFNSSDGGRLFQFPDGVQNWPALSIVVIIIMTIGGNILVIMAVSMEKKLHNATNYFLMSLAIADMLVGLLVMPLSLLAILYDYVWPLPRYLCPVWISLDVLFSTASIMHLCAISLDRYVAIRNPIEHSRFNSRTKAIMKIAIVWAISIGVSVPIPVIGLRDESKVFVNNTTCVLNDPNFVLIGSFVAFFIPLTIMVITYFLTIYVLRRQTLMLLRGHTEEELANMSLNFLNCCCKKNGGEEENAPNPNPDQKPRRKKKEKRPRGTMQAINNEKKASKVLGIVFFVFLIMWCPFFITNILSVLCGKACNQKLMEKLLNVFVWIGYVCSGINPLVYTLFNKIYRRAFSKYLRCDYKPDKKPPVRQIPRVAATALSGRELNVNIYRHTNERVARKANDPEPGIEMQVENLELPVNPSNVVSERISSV
# [3] = target: T2, 5-hydroxytryptamine receptor 2A (Rattus norvegicus, UniProt P14842); experiment: Binding affinity against rat 5-hydroxytryptamine 2A receptor using [3H]ketanserin as radioligand
# [4] = target: T2, 5-hydroxytryptamine receptor 2A; experiment: Binding affinity against rat 5-hydroxytryptamine 2A receptor using [3H]DOB as radioligand
# T2 sequence (P14842 whole entry): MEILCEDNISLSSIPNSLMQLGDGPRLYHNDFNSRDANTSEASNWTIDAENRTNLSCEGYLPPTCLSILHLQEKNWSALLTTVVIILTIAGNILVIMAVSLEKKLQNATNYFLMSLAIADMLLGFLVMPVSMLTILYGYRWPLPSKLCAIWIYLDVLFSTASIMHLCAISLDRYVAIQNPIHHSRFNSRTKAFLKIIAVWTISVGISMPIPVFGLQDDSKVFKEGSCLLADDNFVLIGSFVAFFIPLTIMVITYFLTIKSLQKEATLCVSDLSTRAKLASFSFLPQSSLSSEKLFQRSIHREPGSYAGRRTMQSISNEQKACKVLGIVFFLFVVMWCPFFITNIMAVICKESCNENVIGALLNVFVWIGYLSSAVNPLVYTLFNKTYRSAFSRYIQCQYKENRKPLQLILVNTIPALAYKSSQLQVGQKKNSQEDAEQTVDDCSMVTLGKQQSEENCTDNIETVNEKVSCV
# Chain of Serotonin receptor 2a and 2c (5HT2A and 5HT2C) (Rattus norvegicus) (P14842 whole entry, looked up, one chain of several): as the sequence (P14842 whole entry) above
Compound,Ratio [1],Ki [2] [nM],Ki [3] [nM],Ki [4] [nM]
COc1ccc(Cc2ccccc2)cc1CCN,1,230,176,
COc1ccc(CCCCCc2ccccc2)cc1CCN,1,150,110,
COc1ccc(CCCc2ccccc2)cc1CC(C)N (configuration not stated),8,110,13,19
COc1ccc(C#CCCCc2ccccc2)cc1CCN,< 1,205,295,
COc1ccc(I)cc1CCN,2,1640,700,211
COc1cc(CCCc2ccccc2)ccc1CC(C)N (configuration not stated),11,,,
COc1cc(CCCC2CCCCC2)ccc1CCN,< 1,116,438,250
COc1cc(C#CCCCc2ccccc2)ccc1CCN,< 1,70,295,240
COc1ccccc1CCN,,> 10000,> 10000,> 10000
COc1cc(-c2ccccc2)ccc1CCN,< 1,1520,6720,4900
COc1ccc(OCc2ccccc2)cc1CCN,1,410,345,255
COc1ccc(OC)c(CCN)c1,2,6400,2820,
COc1ccc(CCc2ccccc2)cc1CCN,2,435,240,
COc1ccc(OCCc2ccc(Br)cc2)cc1CCN,1,115,91,35
COc1cc(CCc2ccccc2)ccc1CCN,4,170,46,
COc1cc(OCCc2ccccc2)ccc1CCN,5,810,172,110
COc1ccc(CCCC2CCCCC2)cc1CCN,< 1,198,380,760
COc1ccc(OCCc2ccccc2)cc1CCN,3,1790,600,440
COc1cc(CCCCCc2ccccc2)ccc1CCN,< 1,19,72,18
COc1ccc(O)cc1CCN,1,4860,5960,1330
COc1ccc(CCCc2ccccc2)cc1CCN,11,220,20,30
COc1ccc(CCCCc2ccccc2)cc1CCN,1,71,89,67
COc1cc(CCCCc2ccccc2)ccc1CCN,1,68,59,42
COc1cc(Cc2ccccc2)ccc1CCN,4,93,23,
COc1cc(CCCc2ccccc2)ccc1CCN,16,295,18,12
COc1ccc(Br)cc1CCN,1,960,1000,208
COc1ccc(-c2ccccc2)cc1CCN,1,2870,3460,1520
